Where a name gives a salt, the structure may show the parent alone. Non-standard residues stand in square brackets, D forms with d. Residues, ends and D or L forms follow the SMILES beside them. *: point of attachment. Nle = CCCC[C@H](N)C(=O)O; Cbz = O=C(OCc1ccccc1)*
Assays:
MdmX = test: etoposide-induced MdmX degradation in MCF7 cells (Western blot); format: cell-based, human; details: etoposide 30 μg/ml, 16 hours
Procedure: (§1) Cells were plated in 384-well format and treated with MG132 (2 hours) or cycloheximide (30 minutes). Steadylite luminescence buffer (PerkinElmer) was added and the relative luminescence levels determined on a Victor3 Plate Reader. Each graph represents the median of 5 replicates normalized to a no treatment control, and one standard deviation is shown. […] The graphs and EC50 values were determined using Graphpad PRISM®. […] U2OS, RKO, and HCT116 cells (p53 wild-type) were incubated with 5 μg/ml (14 μM) of MEL23, 5 μg/ml (15 μM) of MEL24, or 10 μM of MG132 for 6 hours. Cells were lysed and analyzed by Western blotting using anti-Mdm2, anti-p53, and anti-eIF4E antibodies. NT indicates a no treatment control. […] MCF7 cells (p53 wild-type) were incubated with 30 μg/ml (51 μM) etoposide alone or in combination with 50 μM AlIn or 5 μg/ml (14 μM) MEL23, or 5 μg/ml (15 μM) MEL24 for 16 hours. Cells were lysed and analyzed by Western blotting using anti-MDMX and anti-actin antibodies.
(§2) Cells were seeded and treated with the indicated compound(s). Cells were lysed after each time point in a buffer of 50 mM TrisHCl pH 7.5, 200 mM NaCl, 0.5% NP-40, and 1 complete mini EDTA-free protease inhibitor cocktail tablet per 10 mL of buffer (Roche, Cat. No. 8360170). Protein content was quantified using a Biorad protein assay reagent (Bio-Rad Laboratories, Hercules, Calif., Cat. No. 500-0006). SDS sample buffer was added to the samples, and the mixture was boiled for 5 minutes. Equal amounts of protein were resolved on a 1D SDS-PAGE gel. Following separation proteins were transferred to nitrocellulose membrane, blocked with 5% milk, and then incubated with primary antibody overnight at 4° C. The membrane was incubated with secondary-HRP antibody for 45 minutes at room temperature and developed with SuperSignal West Pico Substrate (Pierce, Rockford, Ill., Cat. No. 34080).

[1] = biological target: T1, Mdm2-luciferase fusion protein (Homo sapiens, UniProt Q00987); test: cell-based Mdm2 auto-ubiquitination luminescence assay, Mdm2-luciferase cell line; details: 384-well format
T1 construct: Using full-length Mdm2 allowed for the presence of all domains of Mdm2; expressed in transfected cells
T1 sequence (Q00987 whole entry, the tested form may be a part): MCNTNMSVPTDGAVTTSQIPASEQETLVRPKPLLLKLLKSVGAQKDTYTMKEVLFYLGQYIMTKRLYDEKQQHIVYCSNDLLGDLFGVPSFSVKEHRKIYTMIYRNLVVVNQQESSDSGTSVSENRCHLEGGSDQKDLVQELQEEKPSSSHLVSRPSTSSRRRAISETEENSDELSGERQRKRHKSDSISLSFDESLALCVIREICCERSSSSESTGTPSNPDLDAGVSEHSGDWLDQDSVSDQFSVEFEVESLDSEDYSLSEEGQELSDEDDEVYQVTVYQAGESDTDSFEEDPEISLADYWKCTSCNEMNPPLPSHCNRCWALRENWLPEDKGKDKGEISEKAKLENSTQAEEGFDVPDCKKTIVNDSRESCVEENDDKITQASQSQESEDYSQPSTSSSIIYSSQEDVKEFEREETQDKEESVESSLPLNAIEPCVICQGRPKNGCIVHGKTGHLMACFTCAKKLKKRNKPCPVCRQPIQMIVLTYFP
Procedure: as §1
The Mdm2-luciferase cell line was seeded at 7,500 cells per well, in 384-well white plates (PerkinElmer, Waltham, Mass., Cat. No. 6007688), in 27 μl of media (DMEM with FBS and P/S). Assay plates with cells were incubated at 37° C. overnight to allow cells to adhere. After 24 hours, 2 μl from the ‘mother’ plate (4 mg/ml) was transferred to a ‘daughter plate’ containing 148 μl media in order to dilute the compound 1:75. Next, 3 μl from each well of the ‘daughter plates’ was added to triplicate assay plates for a final concentration of 5.33 μg/ml. Assay plates were incubated at 37° C. for 2 hours. Then the cells were lysed with the addition of 30 μl of luminescence buffer (PerkinElmer, Cat. No. 6016989), and the plates were incubated at room temperature for 30 minutes before being analyzed on a Victor3 Plate Reader (PerkinElmer) for luminescence. […] All repurchased compounds were tested in a 2-fold dilution series via the same protocol as the primary screening. All transfers were conducted using a BioMek (Beckman Coulter, Fullerton, Calif.). […] This was determined by comparing the negative control, no treatment, to the positive control, 10 μM MG132.
To identify Mdm2 E3 ligase inhibitors, a high-throughput cellular assay to measure changes in Mdm2 auto-ubiquitination and degradation was designed. This assay took advantage of the fact that Mdm2 can regulate itself in cells through ubiquitination and degradation (8). Two fusion proteins were constructed for the assay: (a) a wild-type Mdm2-luciferase fusion protein, which can auto-ubiquitinate and thereby target itself for degradation; and (b) a mutant Mdm2(C464A)-luciferase fusion protein. Both fusion proteins were constructed with luciferase N-terminal to Mdm2. The C464A mutation disrupts a metal binding site in the RING domain, thereby preventing Mdm2 E3 ligase activity (8). Small molecules that increase the luminescence of the Mdm2-luciferase fusion protein without increasing the luminescence of the Mdm2(C464A)-luciferase fusion protein are likely inhibiting Mdm2 E3 ligase activity or the proteasomal degradation of Mdm2. Alternatively, small molecules that increase the luminescence of both fusion proteins are likely affecting transcription, translation, or have a general cellular impact that is not dependent on the E3 ligase activity of Mdm2 or proteasomal degradation.

Mdm2 and p53 levels = test: Western blot of Mdm2 and p53 protein levels in cell lines; format: cell-based, human; details: 6 hours; for p53 levels in RKO and RKO-E6 cells: isogenic RKO and RKO-E6 (HPV-E6) cells
Procedure: as §1
(§3) H1229 cells were transfected with Mdm2-Flag or remained untransfected. Cells were treated with 5 μg/ml (14 μM) MEL23, 5 μg/ml (15 μM) MEL24, 10 μM MG132, or 1 μg/ml of doxorubicin for 6 hours. Cells were lysed and analyzed by Western blotting using anti-Mdm2 and anti-actin antibodies. The lower band indicated with a star seen with the Mdm2 antibody is a non-specific band. NT indicates a no treatment control. […] RKO and RK0-E6 cells were treated with 5 μg/ml (14 μM) MEL23, 5 μg/ml (15 μM) MEL24, 10 μM MG132, 0.5 μg/ml doxorubicin, 0.5 μg/ml camptothecin or 25 μg/ml Etoposide for 6 hours. Cells were lysed and analyzed by Western blotting using anti-Mdm2, anti-p53, and anti-actin antibodies. The lower band indicated with a star seen with the anti-Mdm2 antibody is a non-specific band. […] RKO cells were treated with 5 μg/ml (14 μM) MEL23, 5 μg/ml (15 μM) MEL24, 10 μM MG132 or 2 μg/ml doxorubicin for 6 hours. Cells were lysed and analyzed by Western blotting using anti-Mdm2, anti-p53, anti-phospho-Ser15 p53, and anti-eiF4E antibodies.
as §2
Cells were lysed and analyzed by Western blotting using anti-Mdm2, anti-p53, and anti-actin antibodies. The lower band seen with the Mdm2 antibody is a non-specific band. NT indicates no treatment control.
Referring now to FIG. 28e, endogenous Mdm2 and p53 protein levels with MEL17 treatment are shown. Briefly, U2OS, RKO, and HCT116 cells (p53 wild-type) were incubated with 5 μg/ml of MEL17 or 10 μM of MG132 for 6 hours. Cells were lysed and analyzed by Western blotting using anti-Mdm2, anti-p53, and anti-actin antibodies. The lower band seen with the Mdm2 antibody is a non-specific band.

p53 ubiquitination = test: cell-based p53 ubiquitination assay in H1299 cells; design: species or system human; details: H1299 transfected with p53, Mdm2, ubiquitin; 10 μg/ml pre-treatment, 10 μM MG132
Procedure: To obtain the results shown in FIG. 4A, Mdm2-luciferase cells were transfected with ubiquitin-HA and treated 8 hours later with 10 μg/ml (28 μM) MEL23, 10 μg/ml (31 μM) MEL24, or a DMSO control. After 16 hours, cells were additionally treated with 10 μM MG132 or a DMSO control. After 3 hours, cells were lysed and immunoprecipitated for 3 hours with anti-HA affinity matrix. Total lysates and immunoprecipitated samples were analyzed by Western blotting using anti-Mdm2 antibody. NT indicates a no treatment control. […] After 8 hours, cells were treated with 10 μg/ml (28 μM) MEL23, 10 μg/ml (31 μM) MEL24, or a DMSO control. After 16 hours, cells were additionally treated with 10 μM MG132 or a DMSO control. After 3 hours cells were lysed and analyzed by Western blotting using anti-p53 antibody. “p53-Ub” indicates the slower migrating species of the protein that are the ubiquitin-conjugated forms.
To test the effects of the MEL compounds on p53 ubiquitination, H1299 cells were transfected with plasmids expressing p53, Mdm2, and ubiquitin and pre-treated with 10 μg/ml MEL23 or MEL24, followed by treatment with 10 μM MG132. Ubiquitination of p53 was analyzed by Western blotting. […] In fact, the half-life of p53 increased from an hour to greater than 6 hours with 5 μg/ml MEL23 treatment (FIG. 32). Thus, treatment with MEL23 and MEL24 inhibits ubiquitin conjugation to Mdm2 and p53.

[2] = test system: p53-Ser15 phosphorylation; test: p53-Ser15 phosphorylation in RKO cells (Western blot); format: cell-based, human; details: 6 hours
Procedure: as §3, §2

SMILES | etoposide-induced MdmX degradation (MdmX) | luminescence of the Mdm2-luciferase cell line [1] | p53 levels in RKO and RKO-E6 cells (Mdm2 and p53 levels) | further results
CCCC[C@@H](C=O)NC(=O)[C@H](CC(C)C)NC(=O)[C@H](CC(C)C)NC(C)=O [ALLN, N-Acetyl-Leu-Leu-Nle-CHO, reference compound] (Ac-Leu-Leu-[Nle]-aldehyde) | degradation could be prevented |  |  | 
CC(C)C[C@@H](C=O)NC(=O)[C@H](CC(C)C)NC(=O)[C@H](CC(C)C)NC(=O)OCc1ccccc1 [MG132, Z-Leu-Leu-Leu-aldehyde, reference compound] (Cbz-Leu-Leu-Leu-aldehyde) |  | increased the levels of the Mdm2-luciferase protein | increased p53 in both cell lines | p53 ubiquitination in cells (p53 ubiquitination): significant increase in p53 ubiquitination
CC[C@@]1(O)C(=O)OCc2c1cc1n(c2=O)Cc2cc3ccccc3nc2-1 [camptothecin, reference compound] |  |  | increased p53 in both cell lines | 
C[C@@H]1C[C@@H]([C@H](O)CC2CC(=O)NC(=O)C2)C(=O)[C@@H](C)C1 [cycloheximide, reference compound] |  | selectively decreased the luminescence of the Mdm2-luciferase protein |  | 
COc1cccc2c1C(=O)c1c(O)c3c(c(O)c1C2=O)C[C@@](O)(C(=O)CO)C[C@@H]3O[C@H]1C[C@H](N)[C@H](O)[C@H](C)O1 [doxorubicin, doxorubicin hydrochloride, reference compound] |  |  | increased p53 in both cell lines | levels of endogenous and ectopically expressed Mdm2 (Mdm2 and p53 levels; p53-null H1299 cells): no effect on Mdm2 levels; phosphorylation of p53 at serine-15 [2]: strongly induced
COc1cc([C@@H]2c3cc4c(cc3[C@@H](O[C@@H]3O[C@@H]5CO[C@@H](C)O[C@H]5[C@H](O)[C@H]3O)[C@H]3COC(=O)[C@H]23)OCO4)cc(OC)c1O [etoposide, reference compound] | MdmX levels decreased substantially |  | increased p53 in both cell lines | 

Source: patent US20120135089A1, “E3 LIGASE INHIBITORS” (priority 2009, published 2012)
